Measured values taken from patent US20090305995A1, “AGONISTS AND ANTAGONISTS OF THE SOMATOSTATIN RECEPTOR” (Novartis AG, priority 2004, published 2009).
Converted amounts (≈) assume the structure as drawn. Like-named read-outs stand apart in the source and are kept apart here.

How the values were obtained:
[1] = high throughput solubility (HT-Solubility); format: physicochemical
[2] = high throughput permeability (HT-Permeability, log Pe); format: physicochemical; settings: PAMPA, Pe in cm/s
hsst4 receptor = biological target: T1, hsst4 receptor (Homo sapiens, UniProt P31391); test: radioligand-binding displacement assay ([125I]LTT-SRIF28), receptor expressed in CCL39 cells; settings: hsst4; [125I]LTT-SRIF28 displacement
T1 construct: expressed in transfected cells; host or cells: Chinese hamster lung fibroblast (CCL39) cells
Method: (§1) The generated peptides are tested for their affinity to bind to human SRIF receptors expressed in Chinese hamster lung fibroblast (CCL39) cells. This is achieved in radioligand-binding assays, a displacement experiment in which the concentration of a substance is measured which is necessary for the replacement of 50% of a specifically bound radioligand ([^125I]LTT-SRIF28). Specific binding is measured as the total binding of receptor-specific radioligand minus the amount of radioligand bound in presence of unmarked SRIF-14 (100 nM, nonspecific binding).

[3] = logP octanol by pH-metric titration (GLpKa instrument); format: physicochemical; settings: read-out: log P/D logP octanol
Method: In order to have a real measure of log P values for highly polar compounds, respective values for compounds 1 to 3 (C-terminal L-β-homothreonine amides) and compounds 7 to 9 (C-terminal 4-amino-5-methyl-dihydro-fuan-2-ones) are measured by employing pH-metric titration technology using a GLpKa instrument (Box et al. 2003). The high polarity of these two mixed α/β^3-tetrapeptides can be controlled by N-terminal introduction of lipophilization tags. The conjugation with fatty acid analogs leads to compounds with druglike polarity (5, 6, 10, 11, 12, 13, 14, 15, 16, 17, 18 and 26).

human SRIF receptors = test: radioligand-binding displacement assay on the human SRIF receptor family (selectivity)
Method: as §1

T1 sequence (P31391 whole entry): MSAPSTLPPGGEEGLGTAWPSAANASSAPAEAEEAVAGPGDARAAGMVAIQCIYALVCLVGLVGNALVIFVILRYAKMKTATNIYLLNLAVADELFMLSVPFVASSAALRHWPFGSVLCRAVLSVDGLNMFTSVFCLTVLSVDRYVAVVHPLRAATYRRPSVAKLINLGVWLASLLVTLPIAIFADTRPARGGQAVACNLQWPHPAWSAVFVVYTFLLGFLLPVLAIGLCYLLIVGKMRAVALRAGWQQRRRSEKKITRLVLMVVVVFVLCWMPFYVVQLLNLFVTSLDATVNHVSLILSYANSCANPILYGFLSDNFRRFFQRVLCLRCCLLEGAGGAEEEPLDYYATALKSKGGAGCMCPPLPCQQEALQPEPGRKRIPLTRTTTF

NCCCC[C@@H](CC(N)=O)NC(=O)[C@@H](Cc1c[nH]c2ccccc12)NC(=O)C[C@@H](N)Cc1ccccc1 [Compound 59, (S)-β^3-HPhe-(R)-Trp-(S)-β^3-HLys-NH2]
solubility ([1]; pH 1, pH 1.0, read-out: HT-Solubility pH 1.0): 101 µg/mL (≈ 200 µM)
solubility ([1]; pH 6.8, pH 6.8, read-out: HT-Solubility pH 6.8): 50.7 µg/mL (≈ 100 µM)
Papp ([2]; pH 4, pH 4.0, read-out: HT-Permeability logPe pH 4.0 (converted)): 1 ×10⁻⁶ cm/s
Papp ([2]; pH 6.8, pH 6.8, read-out: HT-Permeability logPe pH 6.8 (converted)): 3.98 ×10⁻⁶ cm/s
Papp ([2]; pH 8, pH 8.0, read-out: HT-Permeability logPe pH 8.0 (converted)): 3.16 ×10⁻⁶ cm/s
Kd (hsst4 receptor): 1.51 µM
logP [3]: 1
affinity to the receptors of the SRIF family (in words) (human SRIF receptors): only very low affinity
